According to patent US20060293275A1, “Hgf production accelerator containing heparin-like oligosaccharide” (priority 2004, published 2006):

What was measured:
[1] = test system: MRC-9 cells, human fetal lung fibroblasts; test: Activity to promote HGF production in MRC-9 cells (HGF in culture medium by ELISA); type: cell-based; conditions: 0 to 50 μg/ml
Procedure: An activity to promote HGF production of the agent of the present invention can be measured by comparing the HGF concentration in the culture medium of HGF-producing cells when the sugar chain compounds such as oligosaccharides or a salt thereof are added with that when they are not added, wherein the concentration of HGF can be measured by ELISA. As an HGF-producing cell, MRC-5 and MRC-9 cells, human fetal lung fibroblasts, can be used.
Activities to promote HGF production of the heparin fragments (oligosaccharides) obtained in Example 1 were measured by using MRC-9 cells, human fetal lung fibroblasts. The cells were cultured with heparin fragments(oligosaccharides) and amounts of HGF produced by the cell were analyzed. First, MRC-9 cells were seeded onto a 48 well plate at a density of 5×10^4 cells/cm^2, and cultured in a DMEM medium containing 10% FCS for one day. After removing the medium, the cells were washed twice with 0.5 mL of PBS, and the medium was exchanged with a DMEM medium containing 1% FCS. Thereafter, the culture was continued. At this time, the heparin fragments obtained in Example 1 were added to the medium at a final concentration of 1 μg/ml. After 24 hours, the culture supernatant was recovered, and an amount of HGF secreted into the culture medium was measured by the ELISA method. […]

[2] = test system: fresh plasma taken from Wister rat; test: Anti-blood coagulation activity by activated partial thromboplastin time (APTT); type: biochemical; conditions: 9 μg/mL or 3 μg/mL
Text: Anti-blood coagulation activity of the sugar chain compound such as oligosaccharide or a salt thereof used in the agent of the present invention for promoting HGF production can be assessed by measuring an activated partial thromboplastin time (APTT) or anti-factor Xa activity according to the known methods that have been used for measuring anti-blood coagulation activity of low-molecular-weight heparin.
Regarding the heparin fragments (oligosaccharides) obtained in Example 1, anti-blood coagulation activity and LPL releasing activity were measured. Anti-blood coagulation activity was assessed by comparing an activated partial thromboplastin time (APTT). APTT was measured using fresh plasma taken from Wister rat (male) and Data φ·APTT kit (Sysmex) which utilizes activation by ellagic acid. The heparin fragments were added to rat plasma at a concentration of 9 μg/mL or 3 μg/mL, and APTT values (second) were compared.

lipoprotein lipase (LPL) = test: LPL releasing activity (LPL amount in plasma by ELISA after tail vein administration); type: in vivo, Wister rat; conditions: rat, after 10 minutes
Text: LPL releasing activity of the sugar chain compound such as oligosaccharide used in the agent of the present invention for promoting HGF production or a salt thereof can be assessed by administering the sugar chain compound or a salt thereof to a mouse or a rat, taking the plasma after a certain time, and measuring the amount of LPL in the plasma. The amount of LPL in the plasma can be determined by measuring LPL activity, or measuring the mass of LPL protein by ELISA.
For measuring LPL releasing activity, heparin fragments were administered to Wister rat (3-week old male) via the tail vein at 0.3 μg per 1 g of body weight and, after 10 minutes, blood was taken from axillary fossa venous plexus, and a LPL amount in the resulting plasma was measured by ELISA (Daiichi Pure Chemicals Co., Ltd). In high-molecular weight heparin, about 250 ng/mL LPL was released, but in low-molecular weight heparin (Fragmin, Kissei Pharmaceutical Co., Ltd.), released LPL amount was reduced to about 30% of the amount in the case of high-molecular weight heparin. […] In particular, in oligosaccharides not larger than octasaccharide, reduction in released LPL amount was remarkable.

Compound	activity to promote HGF production of disaccharide compounds (in words) [1]	anti-blood coagulation activity / extension of APTT (in words) [2]	LPL releasing activity (in words) (lipoprotein lipase (LPL))
O=C(O)C1=C[C@H](O)[C@@H](O)[C@H](O[C@H]2[C@H](O)[C@@H](NS(=O)(=O)O)C(O)O[C@@H]2CO)O1 (some centres unmarked) [2-Sac-NS, ΔUA-GlcNS]	higher activity to promote HGF production than 2-Sac-2S	not detected	not detected
NC1C(O)OC(CO)C(OC2OC(C(=O)O)=CC(O)C2OS(=O)(=O)O)C1O (stereo not drawn) [2-Sac-2S, ΔUA-2S-GlcN]		not detected	not detected
CC(=O)N[C@H]1C(O)O[C@H](COS(=O)(=O)O)[C@@H](O[C@@H]2OC(C(=O)O)=C[C@H](O)[C@H]2O)[C@@H]1O (some centres unmarked) [2-Sac-6S, ΔUA-GlcNAc-6S]	higher activity to promote HGF production than 2-Sac-2S	not detected	not detected
